The test system of data set [1] is patients with cluster headache. In words: Randomized placebo-controlled study of a 3-dose psilocybin pulse regimen in cluster headache: headache diary. The class given is in vivo, human. Particulars: for effect size for change in weekly cluster attacks: psilocybin vs placebo; for change in the number of weekly cluster attacks / number of weekly cluster attacks: 3-dose pulse 0.143 mg/kg. The source says: In this exploratory study, a patient-informed regimen (a low dose of psilocybin (between 1-2 grams dried P. cubensis taken three times, approximately 5 days apart each)) was studied in patients with cluster headache in a controlled, laboratory setting. The information gained from this study serves to (1) verify longstanding anecdotal reports and (2) design larger, more definitive studies examining the safety and efficacy of psilocybin in cluster headache.
This study was registered on clinicaltrials.gov (NCT02981173) with approvals from the Human Studies Subcommittee of Veterans Affairs Connecticut Healthcare System (VACHS) and the Human Investigations Committee of Yale University School of Medicine. The study was conducted under an approved Investigational New Drug application (#124,874) with the US Food & Drug Administration, under a Schedule 1 license (author DCD). Psilocybin was provided by author NC from the University of Wisconsin. Weight-based capsules of psilocybin 0.143 mg/kg and matching placebo (microcrystalline cellulose; obtained from Fagron (St. Paul, Minn.)) were compounded into identical blue gel capsules by the VACHS Investigational Research Pharmacy for each subject.
Adults (age 21 to 65 years, inclusive) with cluster headache as defined by the International Classification of Headache Disorders III-beta 8 were eligible to participate in this study. Both chronic and episodic cluster headache subtypes were eligible, however certain conditions were required to ensure proper interpretation of the study intervention. For both chronic and episodic subjects, an attack frequency of approximately 1 attack per day or more was required. For episodic subjects, the typical cluster period was required to last approximately 2 months or more and study participation could only take place when at least 6 weeks of the period was anticipated to remain. Excluded medical conditions included, but were not limited to, uncontrolled hypertension, coronary artery disease, cardiac arrhythmia, cerebrovascular disease, and serious central or peripheral nervous system or spinal disease. Excluded psychiatric conditions included, but were not limited to, psychotic or manic disorders in the subject or a first degree relative and substance abuse within the past 3 months. Any prior serious adverse event with psilocybin, LSD, or related compounds (i.e., mescaline) was also exclusionary. Prior exposure to psilocybin or related compounds through recreational or medicinal use or through participation in other research studies was not excluded, although any use in the past 3 months was prohibited. Alcohol use within one week of the first experimental test day was prohibited. Caffeine and nicotine were not restricted. Subjects were required to be off serotonergic antidepressants (selective serotonin reuptake inhibitors, serotonin and norepinephrine reuptake inhibitors, monoamine oxidase inhibitors, tricyclics) for at least 6 weeks and serotonergic antiemetics (i.e., ondansetron) for at least 2 weeks from the first test day. Vasoconstrictive medications (i.e., sumatriptan, pseudoephedrine) could be used during the study period, but not within 5 half-lives of said medication and not within 5 half-lives of psilocybin (15 hours) after each test day. Triptans were also not allowed more than twice weekly.
Subjects were instructed to maintain a headache diary starting 2 weeks before until 8 weeks after the first experimental session. Subjects documented every cluster attack, including date, onset, offset, pain intensity (0-10 visual analog scale (VAS): 0=none, 1=minimal, 5=moderate, 9=severe, 10=worst imaginable). The abortive treatments taken and their effects were also recorded in the diary. Only the 14 days prior to the first experimental session (baseline) and the 56 days after the first experimental session (inclusive) were counted in the final analysis. […]

Data set [2] deals with patients with migraine headache. As to the kind of experiment: Migraine study: acute physiologic and psychotropic effects and adverse events of drug administration. The class given is in vivo, human. As for the experimental part:
Blood pressure, heart rate, and peripheral oxygenation were measured at baseline and throughout experimental sessions. Acute headache pain and associated symptoms (if present) and drug effects (overall, anxiety/fear, sleepiness/sedation, nausea, joy/intense happiness, peace/harmony) were self-reported on a 0-3 scale (0=none, 1=minimal, 2=moderate, 3=definite) at baseline and throughout experimental sessions. Psychedelic effects were self-reported at the end of experimental sessions using the validated 5-Dimensional Altered States of Consciousness (5D-ASC) scale. Subjects were discharged from the NSU at 6 hours after capsule ingestion or once physiological and psychological drug effects had resolved. Only one subject remained in the NSU for an additional 60 minutes until drug effects resolved. Subjects were not allowed to drive themselves after experimental sessions. Emergency contacts, including 24-hour/7-day psychiatry services, were provided to all subjects.
Telephone follow-up was performed the day after and weekly for two weeks after each experimental session, and at 2 and 3 months after the second experimental session.
Statistical analyses were performed using SAS, version 9.4 (SAS Institute Inc., Cary, N.C.) and figures were produced with GraphPad Prism (GraphPad Software Inc., La Jolla, Calif.). All statistical tests were two-sided with an overall pre-hypothesis alpha threshold of 0.05. Measures of error are shown as standard error about the mean (SEM). The primary clinical outcome measure was change in weekly migraine days (WMD) from baseline. This and the secondary measures of migraine burden—changes from baseline in weekly migraine attacks (WMA), pain severity, light sensitivity severity, sound sensitivity severity, nausea/vomiting severity, attack-related functional impairment, and weekly migraine abortive use—were calculated and compared via paired t-test. The time to the next two migraine attacks were also compared between placebo and psilocybin via paired t test. Acute effects of drug administration on mean arterial pressure (MAP), heart rate, peripheral oxygenation, and general drug effects were analyzed via 2-way repeated measures ANOVA with post-hoc Fisher least significant difference (LSD) test (when the interaction existed). Psychotropic effects as measured by the 5D-ASC scale were calculated as a percent of the total possible score 21, 22, as well as the percent possible score of each of the scale's five dimensions—oceanic boundlessness (OBN), dread of ego dissolution (DED), visionary restructuralization (VRS), acoustic alterations (AUA), and vigilance reduction (VIR). Percent possible scores were then compared between placebo and psilocybin via paired t-test. In order to test the assumption that psychotropic effects are unrelated to effects on migraine activity, the maximum rating of general drug effects and the percent total possible 5D-ASC scale score were correlated to the percent change in WMD after psilocybin administration. The number of adverse events (AEs) were compared between placebo and psilocybin using inference on proportions.

Consider `CN(C)CCc1c[nH]c2cccc(OP(=O)(O)O)c12` [psilocybin, 3-(2-dimethylaminoethyl)-1H-indol-4-yl] dihydrogen phosphate], for which the “effect size for change in weekly cluster attacks” value in data set [1] (chronic cluster headache subjects, 8 weeks) is −1.20; in data set [1] (three weeks) it was −1.89. Further, the “change in the number of weekly cluster attacks” value in data set [1] (chronic cluster headache subjects, across 8 weeks, P=0.080 vs placebo) was −6.08 (2.29); in data set [1] (over the first 3 weeks, episodic and chronic combined, P=0.017 vs placebo), −6.03 (2.23). Besides, the “number of weekly cluster attacks” value in data set [1] (chronic cluster headache subjects, across 8 weeks, group baseline 8.67 (2.42)) was 4.58 (0.77); in data set [1] (over the first 3 weeks, episodic and chronic patients combined, group baseline 9.30 (1.49)), 3.50 (1.12). The “maximum increase in mean arterial pressure (MAP) over placebo” value in data set [2] (at 1.5 hours after capsule ingestion, 0.143 mg/kg oral, mean (SEM)) is 12.2 (4.7) mmHg. For the same compound, in data set [2] (during experimental session, 0.143 mg/kg oral), the “tingling/paresthesia, cold/shivering, dry mouth, and acute migraine reported” value is “one subject each”. Further, the “lightheadedness and generalized tension/sore muscles, numbers vs placebo” value in data set [2] (during experimental sessions) was “not significant”. Further, the “drug x time interaction on heart rate or peripheral oxygenation” value in data set [2] (during experimental sessions, 0.143 mg/kg oral) is “no significant interactions”. Also, the “5D-ASC scale, percent possible score for the total scale score” value in data set [2] (end of experimental test day, 0.143 mg/kg oral, mean (SEM), P=0.0263 vs placebo) is listed as 19.35%. In data set [2] (in the 24 hours following the start of experimental sessions), the “tension/sore muscles, general headache attack, and migraine attack vs placebo” value is recorded as “no significant differences”. Besides, in data set [2] (migraine study, single oral dose 0.143 mg/kg), the “serious or unexpected adverse events” value is listed as “no serious or unexpected AEs”. The “MAP vs placebo (post-hoc Fisher LSD)” value in data set [2] (starting at 45 minutes until 4 hours after capsule ingestion, 0.143 mg/kg oral) was “significant increase”.

The record behind these values is patent publication US20210236523A1, “P[…] FOR HEADACHE DISORDERS” (priority 2020, published 2021).
